Experimental data: US4742062A, “Benzylpiperazine compound and pharmaceutical composition as hypolipidemic agent” (Kanebo, Ltd., priority 1985, dated 1988)
Entries after “also recorded” stand apart in the source; their conditions may differ.

Experiments:
[1] = system: mice (liver); assay: Test of hepatic toxicity in mice, weight of liver (Experiment 5); type: in vivo, ddY male mice; conditions: for Weight of liver, mean ± S.E. / Percentage change of weight of liver: 7 days; for Percentage change of weight of liver: vs untreated group
Source text: ddY male mice (weighing 21-23 g, one group: 10 mice) were fed with a mixture of the test compound with powdery feed CE-2 (manufactured by CLEA JAPAN INC.) for 7 days. When the mice fed with the feed mixed with the test compound (test compound-administering group) and the mice fed with the feed mixed with no test compound (no test compound-administering group) were compared as to the feed uptake amount and body weight, there was observed no difference between two groups. After feeding for 7 days, under light anesthesia with ether, the liver was taken out, and the weight thereof was measured.
(§1) From the data thus obtained, a mean value (X) of the weight of liver in the no test compound-administering group and a mean value (Y) of the weight of liver in the test compound-administering group were calculated, and the significant difference between them was tested (t-test). From the resulting data, the percentage change of weight of liver in the test compound-administering group was calculated by the following equation. [formula]

[2] = system: mice fed with normal feed (serum cholesterol); assay: Blood cholesterol lowering activity in mice fed with normal feed (Experiment 2); type: in vivo, ddY male mice; conditions: for Serum cholesterol level, mean ± S.E. / Percentage change of serum cholesterol: 7 days; for Percentage change of serum cholesterol: vs untreated group
Source text: (2) Test method: It was done by a method similar to that of H. B. Right et al. (cf. H. B. Right et al., J. Med. Chem., Vol. 7, 113-115, 1964). ddY male mice (weighing 21-23 g, one group: 10 mice) were fed with a mixture of the test compound with powdery feed CE-2 (manufactured by CLEA JAPAN INC.) for 7 days. When the mice fed with the feed mixed with the test compound (test compound-administering group) and the mice fed with the feed mixed with no test compound (no test compound-administering group) were compared as to the feed uptake amount and body weight, there was observed no difference between two groups. After feeding for 7 days, under light anesthesia with ether, the femoral artery and vein were cut and blood was collected therefrom. The blood was centrifuged at 3,000 r.p.m. for 10 minutes to collect serum. The serum cholesterol was measured in the same manner as described in Experiment 1. From the data thus obtained, a mean value (X) of the serum cholesterol level in the no test compound-administering group and a mean value (Y) of the serum cholesterol level in the test compound-administering group were calculated, and the significant difference between them was tested (t-test). From the resulting data, the percentage change of serum cholesterol in the test compound-administering group was calculated by the following equation. [formula]

[3] = system: hypercholesterolemic mice (plasma cholesterol); assay: Blood cholesterol lowering activity in hypercholesterolemic mice (Experiment 3); type: in vivo, ddY male mice; conditions: for Plasma cholesterol level, mean ± S.E. / Percentage change of plasma cholesterol: orally, three times; for Percentage change of plasma cholesterol: vs untreated group
Source text: (2) Test method: It was done by a method similar to that described in H. Ozawa, Screening of Pharmaceutical Activities for Development of New Drugs - Recent Movement and Practice, Vol. 1, 84-86, 1984 issued by […] Shoin (Tokyo). ddY male mice (weighing 10 - 12 g, one group: 10 mice) were fed with hypercholesterol feed [prepared by mixing CE-2 Feed (manufactured by CLEA JAPAN INC.) with cholesterol 1 w/w %, cholic acid 0.5 w/w % and sucrose 10 w/w %]. After 7 days from the starting of feeding with the hypercholesterol feed, and thereafter 6 hours and further 24 hours (totally three times), a suspension of the test compound in 3 w/v % aqueous gum arabic solution was orally administered. 3 hours after the final administration of the test compound, blood was collected from orbital vessel with hematocrit capillary (manufactured by TERUMO Corporation, treated with heparin). The blood was centrifuged at 10,000 r.p.m. for 2 minutes to collect blood plasma. The plasma cholesterol was measured in the same manner as described in Experiment 1. From the data thus obtained, a mean value (X) of the plasma cholesterol level in the no test compound-administering group and a mean value (Y) of the plasma cholesterol level in the test compound-administering group were calculated, and the significant difference between them was tested (t-test). From the resulting data, the percentage change of plasma cholesterol in the test compound-administering group was calculated by the following equation. [formula]

[4] = system: rats (liver); assay: Test of hepatic toxicity in rats, weight of liver (Experiment 4); type: in vivo, Wistar male rats; conditions: for Weight of liver, mean ± S.E. / Percentage change of weight of liver: orally, once a day for 7 days; for Percentage change of weight of liver: vs untreated group
Experimental: Wistar male rats (weighing 100-130 g, one group: […]) were orally administered with a suspension of the test compound in 3 w/v % aqueous gum arabic solution once a day for 7 days. 24 hours after the final administration of the test compound, under light anesthesia with ether, the liver was taken out and the weight thereof was measured.
as §1

[5] = system: rats fed with normal feed (serum cholesterol); assay: Blood cholesterol lowering activity in rats fed with normal feed (Experiment 1); type: in vivo, Wistar male rats; conditions: for Serum cholesterol level, mean ± S.E. / Percentage change of serum cholesterol: once a day for 7 days; for Percentage change of serum cholesterol: vs untreated group
Experimental: It was done by a method similar to that of A. V. Ginocchio et al. (cf. A. V. Ginocchio et al., Arzneim.Forsch./Drug Res., Vol. 30, 2032-2034, 1980).
Wistar male rats (weighing 100-130 g, one group: 6 rats) were administered with a suspension of the test compound in 3 w/v % aqueous gum arabic solution once a day for 7 days. 24 hours after the final administration of the test compound, under light anesthesia with ether, the femoral artery and vein were cut and blood was collected therefrom. The blood was centrifuged at 3,000 r.p.m. for 10 minutes to collect serum. The serum cholesterol was measured by an enzymatic method using an agent for measuring total cholesterol (Determiner® TC "5", manufactured by Kyowa Medex Co., Ltd.) (cf. Charles C. Allain et al., Clin. Chem., Vol. 20, 470-475, 1974).
From the data thus obtained, a mean value (X) of the serum cholesterol level in the group to which no test compound was administered and a mean value (Y) of the serum cholesterol level in the group to which the test compound was administered were calculated, and the significant difference between them was tested (t-test). From the resulting data, the percentage change of serum cholesterol in the test compound-administering group was calculated by the following equation. [formula]

[6] = conc. of test compd. in feeds 0.0125%
[7] = conc. of test compd. in feeds 0.025%
[8] = conc. of test compd. in feeds 0.05%
[9] = conc. of test compd. in feeds 0.1%
[10] = result in words, dihydrochloride
[11] = normal feed, result in words, dihydrochloride
[12] = dose per once 50 mg/kg, ** p < 0.01
[13] = dose per once 100 mg/kg, *** p < 0.001 (compound of this invention)

Cl.Cl.Clc1ccc(CN2CCN(CC=Cc3ccc(Cl)cc3Cl)CC2)cc1 [Compound of this invention, 1-(4-Chlorobenzyl)-4-(2,4-dichlorocinnamyl)-piperazine dihydrochloride]
Weight of liver, mean ± S.E. [1, 6]: 6.80 ± 0.22 g/100 g of body weight | Percentage change of weight of liver [1, 6]: +7.1% | Weight of liver, mean ± S.E. [1, 7]: 6.63 ± 0.22 g/100 g of body weight | Percentage change of weight of liver [1, 7]: +4.4% | Weight of liver, mean ± S.E. ([1]; conc. of test compd. in feeds 0.05%, ** p < 0.01 (reference compound)): 6.86 ± 0.30 g/100 g of body weight | Percentage change of weight of liver [1, 8]: +8.0% | Weight of liver, mean ± S.E. ([1]; conc. of test compd. in feeds 0.1%, * p < 0.05 (reference compound)): 6.43 ± 0.42 g/100 g of body weight | Percentage change of weight of liver [1, 9]: +1.3% | change in the weight of liver (hepatic toxicity) [1, 10]: did not give any significant change in the weight of liver; also recorded: did not give any effect on the weight of liver | Serum cholesterol level, mean ± S.E. ([2]; conc. of test compd. in feeds 0.0125%, * p < 0.05): 130.7 ± 6.5 mg/dL | Percentage change of serum cholesterol [2, 6]: -13.0% | Serum cholesterol level, mean ± S.E. ([2]; conc. of test compd. in feeds 0.025%, *** p < 0.001): 121.0 ± 3.7 mg/dL | Percentage change of serum cholesterol [2, 7]: -19.4% | Serum cholesterol level, mean ± S.E. ([2]; conc. of test compd. in feeds 0.05%, *** p < 0.001): 62.9 ± 6.4 mg/dL | Percentage change of serum cholesterol [2, 8]: -58.1% | Serum cholesterol level, mean ± S.E. ([2]; conc. of test compd. in feeds 0.1%, *** p < 0.001): 31.7 ± 3.7 mg/dL | Percentage change of serum cholesterol [2, 9]: -78.9% | serum cholesterol lowering activity in comparison with probucol [2, 11]: more potent serum cholesterol lowering activity in comparison with the known probucol; also recorded: higher activities than those of probucol in all experiments | Plasma cholesterol level, mean ± S.E. ([3]; dose per once 25 mg/kg, ** p < 0.01): 313.1 ± 26.0 mg/dL | Percentage change of plasma cholesterol ([3]; dose per once 25 mg/kg): -29.8% | Plasma cholesterol level, mean ± S.E. [3, 12]: 314.5 ± 16.3 mg/dL | Percentage change of plasma cholesterol ([3]; dose per once 50 mg/kg): -29.5% | Plasma cholesterol level, mean ± S.E. [3, 13]: 256.0 ± 19.4 mg/dL | Percentage change of plasma cholesterol ([3]; dose per once 100 mg/kg): -42.6% | plasma cholesterol lowering activity in comparison with probucol [3, 10]: more potent plasma cholesterol lowering activity in comparison with the known probucol; also recorded: higher activities than those of probucol in all experiments | Weight of liver, mean ± S.E. ([4]; dose per once 12.5 mg/kg): 4.77 ± 0.07 g/100 g of body weight | Percentage change of weight of liver ([4]; dose per once 12.5 mg/kg): -2.9% | Weight of liver, mean ± S.E. ([4]; dose per once 25 mg/kg): 4.93 ± 0.10 g/100 g of body weight | Percentage change of weight of liver ([4]; dose per once 25 mg/kg): +0.4% | Weight of liver, mean ± S.E. ([4]; dose per once 50 mg/kg): 5.05 ± 0.08 g/100 g of body weight | Percentage change of weight of liver ([4]; dose per once 50 mg/kg): +2.9% | Weight of liver, mean ± S.E. ([4]; dose per once 100 mg/kg): 5.17 ± 0.07 g/100 g of body weight | Percentage change of weight of liver ([4]; dose per once 100 mg/kg): +5.3% | change in the weight of liver (hepatic toxicity) [4, 10]: did not give any significant change in the weight of liver; also recorded: did not give any effect on the weight of liver | Serum cholesterol level, mean ± S.E. ([5]; dose per once 12.5 mg/kg): 67.1 ± 2.1 mg/dL | Percentage change of serum cholesterol ([5]; dose per once 12.5 mg/kg): -5.4% | Serum cholesterol level, mean ± S.E. ([5]; dose per once 25 mg/kg, *** p < 0.001): 62.8 ± 0.8 mg/dL | Percentage change of serum cholesterol ([5]; dose per once 25 mg/kg): -11.4% | Serum cholesterol level, mean ± S.E. [5, 12]: 64.4 ± 1.6 mg/dL | Percentage change of serum cholesterol ([5]; dose per once 50 mg/kg): -9.2% | Serum cholesterol level, mean ± S.E. [5, 13]: 44.6 ± 2.1 mg/dL | Percentage change of serum cholesterol ([5]; dose per once 100 mg/kg): -37.1% | serum cholesterol lowering activity in comparison with probucol [5, 11]: higher activities than those of probucol in all experiments; also recorded: more potent serum cholesterol lowering activity in comparison with the known probucol
